In PubChem BioAssay AID449745 (Broad Institute, 2010) one finds AC50 data, which are given here for 67 compounds.

Records with an inconclusive call do not appear. Activity calls are given as the source filed them. The rule behind the calls is not given here.

Chain of Zinc finger protein mex-5 (Caenorhabditis elegans) (Q9XUB2 whole entry, looked up): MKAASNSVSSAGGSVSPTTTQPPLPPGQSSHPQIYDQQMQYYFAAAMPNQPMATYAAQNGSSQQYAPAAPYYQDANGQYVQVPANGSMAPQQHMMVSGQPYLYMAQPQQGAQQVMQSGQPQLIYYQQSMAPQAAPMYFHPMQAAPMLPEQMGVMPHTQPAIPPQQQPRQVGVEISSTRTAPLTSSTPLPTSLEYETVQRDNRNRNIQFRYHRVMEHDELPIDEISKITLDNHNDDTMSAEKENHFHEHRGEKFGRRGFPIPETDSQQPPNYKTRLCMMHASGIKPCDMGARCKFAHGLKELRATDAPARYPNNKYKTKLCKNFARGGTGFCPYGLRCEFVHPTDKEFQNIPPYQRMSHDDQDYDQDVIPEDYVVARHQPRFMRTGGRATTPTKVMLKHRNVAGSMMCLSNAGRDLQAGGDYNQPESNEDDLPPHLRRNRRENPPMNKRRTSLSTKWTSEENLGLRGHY

The experiment has as its target Zinc finger protein mex-5 (Caenorhabditis elegans) (UniProt Q9XUB2). Kind of experiment: retest of MEX-5 TCR-2 binding inhibitors, confirmation, biochemical, C. elegans, fluorescence polarization, dose retest (AID 449745).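 Note: potency is for blocking Mex-5 binding to labeled TCR2 RNA like unlabeled competitor.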 To be noted: Mex-5 / TCR-2 RNA binding. For orientation: Polarisation of emitted light reports the rotation of a fluorescent probe.
Turning to `CCOC(=O)NC(=O)COC(=O)c1ccc(Sc2ncn[nH]2)c([N+](=O)[O-])c1`, the AC50 (as a rule, the concentration at which the activity in the assay is half-maximal) is 16.1 µM.

For the compound `COc1ccc(/C=C/C(=O)N/C(=C\c2ccco2)C(=O)NCCc2nc3ccccc3[nH]2)cc1`, the AC50 was > 38 µM (inactive).

On to `Cc1cc2n(n1)C(c1c[nH]c3ccccc13)Nc1ccccc1-2` (configuration not stated), for which the AC50 is > 38 µM (inactive).

`Nc1ccc2nc3c(=O)n(CCc4ccccc4)c(=O)[nH]c3nc2c1`: the concentration at half-maximal activity (AC50) is 3.43 µM.

In the case of `O=C1c2cccc3cccc(c23)C(=O)C1(O)O`, the AC50 was 15.6 µM.

As for `Cc1cc(C)c2c3c(sc2n1)C(c1ccccc1)C(C#N)=C(N)O3` (configuration not stated), the AC50 was > 38 µM (inactive).

Regarding `CCc1cc(-c2n[nH]c(CCC(=O)O)c2-c2nc3ccccc3n2C)c(O)cc1O`, the AC50 was 12.1 µM.

Turning to `CCN(CC)c1ccc2cc(S(=O)(=O)c3ccc(C)cc3)c(=O)oc2c1`, the AC50 was 11.5 µM.

On to `CC1(OC(=O)C2CCCC2)C(=O)C=C2C=C(c3ccc(C#N)cc3)OC=C2C1=O` (configuration not stated), for which the AC50 was 9.38 µM.

Take `Oc1[nH]c2ccccc2c1N=NC(=S)N1CCOCC1`: the concentration at half-maximal activity (AC50) was 6.32 µM.

In the case of `COc1ccccc1OCC(=O)NNC(=O)c1cnccn1`, the AC50 was 35.3 µM.

As for `COc1ccc(/C=C/C(=O)c2c(O)n(CCC3=CCCCC3)c(=O)[nH]c2=O)cc1`, the AC50 was > 38 µM (inactive).

Consider `COc1ccc(OC)c(N2C(=O)NC(=O)/C(=C\c3ccc([N+](=O)[O-])s3)C2=O)c1`, for which the AC50 is 16.1 µM.

Regarding `COc1ccc2cc(N=Cc3nc(-c4ccc(C)cc4)oc3O)cnc2c1`, the AC50 is > 38 µM (inactive).

With `CCN1C/C(=C/c2ccc(OC)c(O)c2)C(=O)/C(=C/c2ccc(OC)c(O)c2)C1`, the AC50 is > 38 µM (inactive).

`CC1(C)CC(=O)C2=C(C1)N=c1s/c(=C/c3ccc(F)c(F)c3)c(=O)n1C2c1ccc(F)cc1` (configuration not stated): the AC50 is > 38 µM (inactive).

For `O=S(=O)(O)c1cccc2c(N=Nc3ccc(O)c4ncccc34)cccc12`, the AC50 is 3.04 µM.

As for `N=c1c(C(=O)NCC2CCCO2)cc2c(=O)n3ccccc3nc2n1Cc1ccc(Cl)cc1` (configuration not stated), the AC50 was > 38 µM (inactive).

In the case of `COc1ccc(CC(=O)NNC(=O)c2cnccn2)cc1`, the concentration at half-maximal activity (AC50) was 15.5 µM.

Take `O=C1NC(=O)N(c2ccccc2)C(=O)/C1=C/c1ccc([N+](=O)[O-])s1`: the AC50 is 23.7 µM.

For the compound `O=C1CCNc2ccc(-c3ccccc3)cc21`, the half-maximal activity concentration (AC50) is 4.42 µM.

As for `Nc1cc2c3c(cccc3c1)C(=O)N(CCN1CCCC1)C2=O`, the half-maximal activity concentration (AC50) is 16 µM.

With `N#C/C(=C\c1cccs1)C(=O)Nc1ccccn1`, the AC50 was 32.6 µM.

Consider `Nc1ccc2nc(CN3CCOCC3)[nH]c2c1`, for which the half-maximal activity concentration (AC50) was 34.4 µM.

As for `CCCCCC#CCC#CCC#CCC#CCCCC(=O)O`, the concentration at half-maximal activity (AC50) was 6.71 µM.

Turning to `CCCCCCNC(=O)C(C#N)c1nc2ccccc2nc1N1CCOCC1` (configuration not stated), the AC50 is 13.3 µM.

For the compound `O=C1c2cccc3c(N4CCCCC4)ccc(c23)C(=O)N1c1ccccc1O`, the AC50 was 28.7 µM.

With `O=C(O)CCN1C(=O)/C(=C\c2ccc(-c3nc4ccccc4s3)o2)SC1=S`, the AC50 was 3.89 µM.

With `CC(C)C[C@H](NC(=O)C1CC(=O)N(c2ccc3c(c2)OCO3)C1)C(=O)NC1CCCC1` (some centres not stated), the AC50 was 29.2 µM.

Consider `O=c1ccc2cc3c([nH]c4ccc(Br)cc43)oc-2c1O`, for which the AC50 is 3.77 µM.

`CCOC(=O)C1CCN(c2nc(N)c3c(N)nc(SCC(=O)O)cc3c2C#N)CC1`: the AC50 is 20.1 µM.

In the case of `Cc1nn2c(N)csc2nc1=O`, the half-maximal activity concentration (AC50) was 30 µM.

As to `CCOC(=O)c1c(/N=C/C2C(=O)NC(=S)NC2=O)sc2c1CCC2`, the concentration at half-maximal activity (AC50) is 12.8 µM.

For `Cc1cc(C)cc(NC(=O)N(C)Cc2ccccc2)c1`, the AC50 was > 38 µM (inactive).

`S=c1[nH]cnc2sc(Nc3ccccc3)nc12`: the AC50 is 27.4 µM.

In the case of `NC(=O)c1c(NC(=O)C2COc3ccccc3O2)sc2c1CCN(Cc1ccccc1)C2` (configuration not stated), the AC50 is > 38 µM (inactive).

Consider `O=C(CCN1C(=O)/C(=C/c2ccco2)SC1=S)Nc1ccc(C(=O)O)c(O)c1`, for which the AC50 is 30.6 µM.

On to `Nc1c(C(=O)C2CC2)sc2nc(-c3cccs3)cc(C(F)(F)F)c12`, for which the AC50 is > 38 µM (inactive).

For `Cc1ccc(N2C(=O)NC(=O)/C(=C\c3ccc([N+](=O)[O-])o3)C2=O)cc1`, the AC50 was 6.08 µM.

As for `COc1ccc(/C=C2\C(=O)NC(=S)N2C(=O)c2ccc(C)cc2)cc1`, the AC50 is > 38 µM (inactive).

On to `Cc1cc(O)c(-c2cc(O)c(C)cc2O)cc1O`, for which the half-maximal activity concentration (AC50) is 6.21 µM.

Turning to `Cc1cc(=O)[nH]c(SCc2nc3ccc([N+](=O)[O-])cc3[nH]2)n1`, the half-maximal activity concentration (AC50) is 16.6 µM.

For the compound `O=C(c1ccc(Cl)cc1)C1C2C(=O)N(c3ccccc3)C(=O)C2C2CCCN21` (configuration not stated), the concentration at half-maximal activity (AC50) was 19.8 µM.

Consider `O=C(Nc1ccccc1F)C(=Cc1sc(N2CCOCC2)nc1-c1ccccc1)C(=O)Nc1ccccc1F`, for which the AC50 is 29.4 µM.

In the case of `Cc1ccc(C(=O)N/C(=C\c2ccc(-c3ccc([N+](=O)[O-])cc3)o2)C(=O)NC2CCS(=O)(=O)C2)cc1` (configuration not stated), the AC50 was > 38 µM (inactive).

On to `CCOC(=O)C(=NC(C)C)NNc1cc(Cl)ccc1Cl`, for which the AC50 is > 38 µM (inactive).

On to `CC1=C(C#N)c2nc(N)c(C#N)c(C)c2/C1=C\c1ccc(-c2ccccc2C(=O)O)o1`, for which the AC50 is 17.9 µM.

Regarding `O=c1c2ccccc2c(C=Nc2ccc(O)cc2)c(O)n1-c1nccs1`, the AC50 was > 38 µM (inactive).

With `Cc1nc2c3ccccc3nc(NNC(=O)CCC(=O)NC(C)C)n2n1`, the concentration at half-maximal activity (AC50) is less than 0.3 µM.

Consider `NS(=O)(=O)c1ccc(-c2ccc(C=C3C(=O)NC(=S)NC3=O)o2)cc1`, for which the concentration at half-maximal activity (AC50) was 8.11 µM.

`O=c1[nH]n2c(=O)c3c([nH]c2c1N=Nc1ccccc1)CCC3`: the AC50 is less than 0.3 µM.

Take `Cc1ccc(/C=C2/NC(=O)N(Cc3ccccc3)C2=O)s1`: the AC50 is > 38 µM (inactive).

Turning to `O=C(N/N=C/c1c(O)n(C2CC2)c(=S)[nH]c1=O)c1ccccc1O`, the concentration at half-maximal activity (AC50) was 27.5 µM.

For `O=S(=O)(Nc1ccc(O)c(NS(=O)(=O)c2ccccc2)c1)c1ccccc1`, the AC50 was 6.92 µM.

`O=C(NC(=S)NNS(=O)(=O)c1ccccc1)c1ccc([N+](=O)[O-])cc1`: the AC50 is 34.2 µM.

Regarding `CC(=Nc1ccc(C)cc1C)c1sc2ccccc2c1O`, the half-maximal activity concentration (AC50) was 37.2 µM.

In the case of `O=C(O)/C=C/C(=O)NNc1ncnc2ccccc12`, the concentration at half-maximal activity (AC50) is 22.2 µM.

Turning to `CCN(CC)C(=O)Cn1c(=O)c2ccccc2n2c(=S)sc(-c3cccc(C)c3)c12`, the AC50 is 17.2 µM.

For `CC(=O)Nc1ccc(S(=O)(=O)NNC(=O)C(=O)NNc2ccccn2)cc1`, the AC50 was 0.621 µM.

Turning to `COc1cccc(CN2C(=O)c3cccc(N)c3C2=O)c1`, the concentration at half-maximal activity (AC50) is 32 µM.

Turning to `O=c1[nH][nH]c2cc(=O)n(-c3cccc(C(F)(F)F)c3)nc12`, the AC50 was 20.3 µM.

For `COc1ccccc1N1C(C)=CC(=C(C#N)c2nc3ccccc3s2)C=C1C`, the concentration at half-maximal activity (AC50) is 13.4 µM.

With `O=C(Cc1c(O)c2ccccc2oc1=O)c1ccc(C(F)(F)F)cc1`, the AC50 was 37.5 µM.

As for `CC(=O)OC1=C(O)C(=O)c2ccccc2C1=O`, the concentration at half-maximal activity (AC50) is 10.3 µM.

Turning to `Cc1oc2c(cc(NS(=O)(=O)c3ccc(C(C)C)cc3)c3ccccc32)c1C(=O)O`, the concentration at half-maximal activity (AC50) was 5.37 µM.

With `O=C(O)c1c2c(nc3ccccc13)/C(=C/c1ccc(O)cc1)CC2`, the half-maximal activity concentration (AC50) is 36.4 µM.

As for `COc1ccc(N=Nc2nc3ccc(Br)cc3n2C)cc1`, the AC50 was 34.9 µM.
